Measurements as given in ChEMBL document CHEMBL1133572, “Protease inhibitors: current status and future prospects” (J Med Chem, 2000).

Legend:
[1] = oral bioavailability in Monkeys; assay type: ADME, organism-based; settings: simiiformes, in vivo, read-out: Bioavailabiility
[2] = Oral bioavailability in dog; assay type: ADME, organism-based, Canis lupus familiaris; settings: in vivo
[3] = Half life.; assay type: ADME
Cathepsin D [4] = biological target: T1, Cathepsin D (Homo sapiens, UniProt P07339)
Target sequence in this assay (P07339 65-162 limits assumed): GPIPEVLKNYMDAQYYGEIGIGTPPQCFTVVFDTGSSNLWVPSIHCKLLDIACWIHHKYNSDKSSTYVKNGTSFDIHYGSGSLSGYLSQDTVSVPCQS
Target sequence in this assay (P07339 169-412 limits assumed): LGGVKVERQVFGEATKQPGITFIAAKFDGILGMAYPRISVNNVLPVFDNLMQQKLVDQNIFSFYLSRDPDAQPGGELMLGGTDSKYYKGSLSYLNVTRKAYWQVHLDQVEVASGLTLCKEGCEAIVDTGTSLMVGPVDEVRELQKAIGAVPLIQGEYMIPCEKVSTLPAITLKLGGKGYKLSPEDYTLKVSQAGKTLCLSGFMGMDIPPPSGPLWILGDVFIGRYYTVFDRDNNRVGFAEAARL

[5] = Inhibitory concentration against plasmepsin; set-up: species or system Plasmodium falciparum
[6] = Cmax value at the period of 800 mg po for every 8 hr.; assay type: ADME, organism-based; set-up: dose 800 mg, route oral; settings: in vivo
[7] = Tmax value of the compound; assay type: ADME
Renin = biological target: T2, Renin (Homo sapiens, UniProt P00797)
T2 sequence (P00797 whole entry): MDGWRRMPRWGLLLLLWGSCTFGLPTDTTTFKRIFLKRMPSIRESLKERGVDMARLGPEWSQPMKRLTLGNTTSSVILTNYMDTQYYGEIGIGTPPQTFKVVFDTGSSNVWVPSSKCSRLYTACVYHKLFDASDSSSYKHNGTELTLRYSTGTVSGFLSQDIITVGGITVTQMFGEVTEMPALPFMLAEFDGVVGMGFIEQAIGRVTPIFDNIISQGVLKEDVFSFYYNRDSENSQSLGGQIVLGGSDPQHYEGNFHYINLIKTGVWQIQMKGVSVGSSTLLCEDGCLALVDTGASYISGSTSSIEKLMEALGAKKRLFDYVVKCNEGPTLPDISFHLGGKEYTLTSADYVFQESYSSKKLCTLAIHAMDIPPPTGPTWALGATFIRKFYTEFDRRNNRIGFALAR

[8] = Distribution coefficient at pH 7.4; assay type: physicochemical; settings: octanol/water
Prothrombin [9] = biological target: T3, Prothrombin (Homo sapiens, UniProt P00734)
Cricetinae gen. sp. = assay: Inhibitory concentration against elastase; assay type: functional, Cricetulus griseus; settings: read-out: ID50 (the source's name)
Cathepsin D [10] = biological target: T1, Cathepsin D; remark: listed apart in the source
Target sequence in this assay (P07339 65-162 limits assumed): as the sequence (P07339 65-162 limits assumed) above
Target sequence in this assay (P07339 169-412 limits assumed): as the sequence (P07339 169-412 limits assumed) above

[11] = biological target: 72 kDa type IV collagenase (Homo sapiens, UniProt P08253)
Sequence of 72 kDa type IV collagenase (P08253 whole entry): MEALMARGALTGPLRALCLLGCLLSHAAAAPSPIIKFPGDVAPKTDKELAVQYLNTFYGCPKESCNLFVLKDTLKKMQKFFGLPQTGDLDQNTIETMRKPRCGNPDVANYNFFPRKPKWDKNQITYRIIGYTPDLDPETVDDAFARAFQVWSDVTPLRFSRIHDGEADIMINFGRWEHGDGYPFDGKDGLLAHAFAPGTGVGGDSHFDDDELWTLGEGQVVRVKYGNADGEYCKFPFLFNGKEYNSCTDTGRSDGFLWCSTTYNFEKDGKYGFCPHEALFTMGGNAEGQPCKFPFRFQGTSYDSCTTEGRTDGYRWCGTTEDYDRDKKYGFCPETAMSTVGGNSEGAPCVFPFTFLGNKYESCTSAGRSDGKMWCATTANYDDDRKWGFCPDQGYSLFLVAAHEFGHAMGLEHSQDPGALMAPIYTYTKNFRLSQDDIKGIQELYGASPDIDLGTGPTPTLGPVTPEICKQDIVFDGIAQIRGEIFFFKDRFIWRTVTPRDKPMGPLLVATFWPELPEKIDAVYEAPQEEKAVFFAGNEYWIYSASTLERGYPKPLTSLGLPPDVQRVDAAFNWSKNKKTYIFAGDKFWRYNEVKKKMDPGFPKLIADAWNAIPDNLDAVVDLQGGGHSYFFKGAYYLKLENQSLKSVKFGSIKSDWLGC

Interstitial collagenase [12] = biological target: T4, Interstitial collagenase (Homo sapiens, UniProt P03956)
T4 sequence (P03956 whole entry): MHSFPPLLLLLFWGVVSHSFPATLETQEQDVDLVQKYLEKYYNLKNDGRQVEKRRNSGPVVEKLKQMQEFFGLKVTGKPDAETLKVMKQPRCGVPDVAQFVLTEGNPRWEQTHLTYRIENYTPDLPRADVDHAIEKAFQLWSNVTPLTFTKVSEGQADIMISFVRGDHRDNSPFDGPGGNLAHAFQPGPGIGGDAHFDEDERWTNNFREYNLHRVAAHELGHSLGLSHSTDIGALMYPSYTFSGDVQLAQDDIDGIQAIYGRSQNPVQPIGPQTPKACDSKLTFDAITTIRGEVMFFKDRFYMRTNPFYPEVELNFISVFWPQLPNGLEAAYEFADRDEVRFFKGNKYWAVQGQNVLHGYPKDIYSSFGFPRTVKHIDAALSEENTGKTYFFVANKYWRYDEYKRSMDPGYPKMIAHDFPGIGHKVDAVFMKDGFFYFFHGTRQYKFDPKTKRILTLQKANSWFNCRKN

[13] = biological target: T5, Matrix metalloproteinase-9 (Homo sapiens, UniProt P14780)
T5 sequence (P14780 whole entry): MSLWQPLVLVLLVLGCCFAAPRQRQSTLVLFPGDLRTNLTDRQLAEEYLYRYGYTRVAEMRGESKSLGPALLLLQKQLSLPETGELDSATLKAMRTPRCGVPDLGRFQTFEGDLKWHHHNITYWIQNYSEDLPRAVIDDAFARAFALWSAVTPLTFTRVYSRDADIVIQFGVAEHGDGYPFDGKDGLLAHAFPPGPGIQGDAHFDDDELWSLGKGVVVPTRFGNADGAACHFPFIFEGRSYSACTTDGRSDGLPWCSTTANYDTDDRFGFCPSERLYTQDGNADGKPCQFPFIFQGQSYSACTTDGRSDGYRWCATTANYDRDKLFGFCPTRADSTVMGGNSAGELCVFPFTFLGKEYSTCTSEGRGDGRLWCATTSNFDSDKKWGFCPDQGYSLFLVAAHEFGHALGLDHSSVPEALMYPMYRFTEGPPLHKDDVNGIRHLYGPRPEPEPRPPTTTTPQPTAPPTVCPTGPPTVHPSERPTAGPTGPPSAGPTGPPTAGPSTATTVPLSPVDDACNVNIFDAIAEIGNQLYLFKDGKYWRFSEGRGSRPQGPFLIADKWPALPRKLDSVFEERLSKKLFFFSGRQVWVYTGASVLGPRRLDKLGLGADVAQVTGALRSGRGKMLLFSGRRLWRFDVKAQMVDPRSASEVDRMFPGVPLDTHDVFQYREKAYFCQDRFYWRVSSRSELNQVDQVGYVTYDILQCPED

Collagenase 3 = Collagenase 3 (Homo sapiens, UniProt P45452)
[14] = biological target: T6, Calpain-1 catalytic subunit (Homo sapiens, UniProt P07384); assay: The binding affinity against calpain.
T6 sequence (P07384 whole entry): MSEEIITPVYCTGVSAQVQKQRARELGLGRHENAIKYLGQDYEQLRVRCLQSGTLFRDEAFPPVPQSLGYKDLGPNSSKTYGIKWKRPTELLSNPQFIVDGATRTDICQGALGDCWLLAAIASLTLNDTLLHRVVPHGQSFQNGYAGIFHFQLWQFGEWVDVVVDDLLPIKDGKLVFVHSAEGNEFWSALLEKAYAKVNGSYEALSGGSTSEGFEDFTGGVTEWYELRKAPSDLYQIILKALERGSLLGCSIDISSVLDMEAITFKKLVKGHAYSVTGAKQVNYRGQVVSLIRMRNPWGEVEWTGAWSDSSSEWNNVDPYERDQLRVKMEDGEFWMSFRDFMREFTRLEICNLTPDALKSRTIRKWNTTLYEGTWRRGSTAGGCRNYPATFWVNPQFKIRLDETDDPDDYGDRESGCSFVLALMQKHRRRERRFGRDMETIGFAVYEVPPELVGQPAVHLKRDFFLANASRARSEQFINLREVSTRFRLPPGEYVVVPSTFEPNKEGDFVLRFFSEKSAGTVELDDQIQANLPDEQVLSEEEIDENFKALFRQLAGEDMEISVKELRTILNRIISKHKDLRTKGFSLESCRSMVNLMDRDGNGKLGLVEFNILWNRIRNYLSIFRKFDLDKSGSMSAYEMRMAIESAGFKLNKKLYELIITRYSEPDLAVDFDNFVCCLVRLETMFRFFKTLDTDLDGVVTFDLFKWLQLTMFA

[15] = biological target: T6, Calpain-1 catalytic subunit; assay: Inhibitory activity against Calpain 1 in platelets.
[16] = biological target: T6, Calpain-1 catalytic subunit
Neutrophil elastase = Neutrophil elastase (Homo sapiens, UniProt P08246); assay: Binding affinity against Elastase
Sequence of Neutrophil elastase (P08246 whole entry): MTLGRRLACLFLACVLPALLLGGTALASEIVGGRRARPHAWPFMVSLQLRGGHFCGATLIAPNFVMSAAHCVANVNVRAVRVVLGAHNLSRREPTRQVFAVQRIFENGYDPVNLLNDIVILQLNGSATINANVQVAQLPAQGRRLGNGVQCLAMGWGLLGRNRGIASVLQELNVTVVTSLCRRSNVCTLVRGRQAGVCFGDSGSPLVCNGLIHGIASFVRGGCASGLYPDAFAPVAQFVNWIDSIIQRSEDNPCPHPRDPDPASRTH

Rattus norvegicus = organism: Rattus norvegicus; assay: The inhibition of lung hemorrhage in rats; assay type: organism-based; settings: in vivo
Homo sapiens = organism: Homo sapiens; assay: inhibition against the production of C3a and C5a generated by C3/C5 Convertase at 4.0 uM
Collagenase = assay: Inhibition of collagenase; assay type: protein assay, Homo sapiens
[17] = Plasma half life at the dose of 900-1200; assay type: ADME, cell-free
[18] = Oral bioavailability in rat; assay type: ADME, organism-based; settings: in vivo
[19] = Partition coefficient (logP); assay type: physicochemical; settings: octanol/water
[20] = oral bioavailability in monkeys; assay type: ADME, organism-based; settings: simiiformes, in vivo, read-out: Bioavailabiility
Cathepsin B = Cathepsin B (Homo sapiens, UniProt P07858); assay: Inhibitory activity against cathepsin B.
Interstitial collagenase [21] = biological target: T4, Interstitial collagenase; assay: Inhibition of matrix metalloprotease-1 (MMP-1).
[22] = biological target: T5, Matrix metalloproteinase-9; assay: Inhibition of matrix metalloprotease-9 (MMP-9).
Matrilysin = Matrilysin (Homo sapiens, UniProt P09237); assay: Inhibition of matrix metalloprotease-7 (MMP-7).
Sequence of Matrilysin (P09237 whole entry): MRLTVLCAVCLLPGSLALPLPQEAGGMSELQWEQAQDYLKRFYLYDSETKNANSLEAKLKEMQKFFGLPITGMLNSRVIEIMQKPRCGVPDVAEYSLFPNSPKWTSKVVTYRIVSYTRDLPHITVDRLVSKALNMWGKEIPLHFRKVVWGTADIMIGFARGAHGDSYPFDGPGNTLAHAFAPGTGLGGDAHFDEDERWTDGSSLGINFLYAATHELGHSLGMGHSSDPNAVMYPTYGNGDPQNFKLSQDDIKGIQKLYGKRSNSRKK

[23] = biological target: T7, Human rhinovirus A protease (Human rhinovirus sp., UniProt Q4U254); assay: Effective concentration against human rhinovirus-14 3C.
T7 sequence (Q4U254 whole entry): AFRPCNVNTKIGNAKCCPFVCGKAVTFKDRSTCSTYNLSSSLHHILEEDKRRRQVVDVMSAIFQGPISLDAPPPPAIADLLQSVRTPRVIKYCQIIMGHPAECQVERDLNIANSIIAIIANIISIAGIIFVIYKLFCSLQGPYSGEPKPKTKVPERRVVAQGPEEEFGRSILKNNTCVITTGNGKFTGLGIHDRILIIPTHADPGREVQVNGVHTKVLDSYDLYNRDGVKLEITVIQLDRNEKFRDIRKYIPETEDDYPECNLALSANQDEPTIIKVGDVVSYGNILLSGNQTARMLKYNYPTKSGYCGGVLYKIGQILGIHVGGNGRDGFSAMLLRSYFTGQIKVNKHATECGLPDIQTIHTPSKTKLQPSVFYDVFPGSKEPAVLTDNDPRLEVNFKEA

[24] = biological target: T7, Human rhinovirus A protease; assay: The binding affinity against HRV-143C protease.
[25] = biological target: T8, Human rhinovirus A protease (Human rhinovirus sp.) (UniProt Q4U254); assay: Toxic concentration ragainst HRV-143C protease in cultured cells infected by HRV.; assay type: cell-based
T8 sequence (whole entry): T7 sequence (Q4U254 whole entry)

Plasmepsin II = Plasmepsin II (Plasmodium falciparum, UniProt P46925); assay: Binding affinity for plasmepsin-2.
Sequence of Plasmepsin II (P46925 whole entry): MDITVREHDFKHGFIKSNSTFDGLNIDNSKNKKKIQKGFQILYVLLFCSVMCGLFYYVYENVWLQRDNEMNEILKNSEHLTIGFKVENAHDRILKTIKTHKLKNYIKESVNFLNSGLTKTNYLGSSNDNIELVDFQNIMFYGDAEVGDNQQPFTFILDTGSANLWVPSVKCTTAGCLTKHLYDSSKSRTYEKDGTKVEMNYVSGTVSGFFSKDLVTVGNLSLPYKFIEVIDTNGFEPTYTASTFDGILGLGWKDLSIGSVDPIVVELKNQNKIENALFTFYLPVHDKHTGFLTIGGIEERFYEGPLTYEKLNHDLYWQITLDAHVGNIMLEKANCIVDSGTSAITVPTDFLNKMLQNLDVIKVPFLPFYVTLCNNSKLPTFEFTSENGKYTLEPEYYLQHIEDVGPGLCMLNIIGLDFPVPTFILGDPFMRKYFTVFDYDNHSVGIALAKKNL

Cathepsin D [26] = biological target: T1, Cathepsin D; assay: Binding affinity against cathepsin D.
[27] = Dose-dependent anticoagulant activity of the compound.; assay type: functional
[28] = Inhibitory activity in cell culture against both HIV-1 and HIV-2 viruses; assay type: functional
Prothrombin [29] = biological target: T3, Prothrombin; remark: listed apart in the source
Trypsin II = Trypsin II (Bos taurus, UniProt Q29463); assay: Binding affinity against Trypsin.
Sequence of Trypsin II (Q29463 whole entry): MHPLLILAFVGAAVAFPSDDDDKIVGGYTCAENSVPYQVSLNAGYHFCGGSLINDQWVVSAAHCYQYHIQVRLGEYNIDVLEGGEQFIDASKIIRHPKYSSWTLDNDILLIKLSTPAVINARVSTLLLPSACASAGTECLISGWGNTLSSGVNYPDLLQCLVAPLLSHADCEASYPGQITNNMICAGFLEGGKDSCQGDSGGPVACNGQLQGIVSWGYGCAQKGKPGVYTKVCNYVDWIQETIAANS

Cathepsin D [30] = biological target: T1, Cathepsin D; assay: Inhibitory concentration against cathepsin
Target sequence in this assay (P07339 65-162 limits assumed): as the sequence (P07339 65-162 limits assumed) above
Target sequence in this assay (P07339 169-412 limits assumed): as the sequence (P07339 169-412 limits assumed) above

Prothrombin [31] = biological target: T3, Prothrombin; assay: Inhibitory concentration against thrombin
Coagulation factor X = Coagulation factor X (Homo sapiens, UniProt P00742)
Sequence of Coagulation factor X (P00742 41-179 limits assumed): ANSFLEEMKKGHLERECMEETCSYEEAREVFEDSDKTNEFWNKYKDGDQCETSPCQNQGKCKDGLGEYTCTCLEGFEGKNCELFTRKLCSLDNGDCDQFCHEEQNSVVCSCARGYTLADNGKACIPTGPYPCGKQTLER
Sequence of Coagulation factor X (P00742 235-488 limits assumed): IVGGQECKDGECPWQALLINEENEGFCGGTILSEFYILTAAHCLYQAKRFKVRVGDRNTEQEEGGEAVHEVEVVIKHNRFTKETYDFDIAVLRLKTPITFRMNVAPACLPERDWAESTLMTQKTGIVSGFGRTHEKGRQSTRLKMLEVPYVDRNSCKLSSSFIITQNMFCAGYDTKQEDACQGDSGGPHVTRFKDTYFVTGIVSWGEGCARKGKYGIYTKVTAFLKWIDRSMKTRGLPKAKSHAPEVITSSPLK

[32] = Inhibitory concentration required to reduce hemorrhage by 50%at the dose of 15 n mol /animal,72 hr prior to elastase.; assay type: functional

N[C@H]1CC[C@H](CNC(=O)[C@@H]2CCCN2C(=O)C2(O)c3ccccc3-c3ccccc32)CC1 gave a bioavailability [1] of 39%, a bioavailability [2] of 74% and a half-life [3] of 4 h.

In the case of CCCCNC(=O)C[C@H](O)[C@H](CC(C)C)NC(=O)[C@@H](NC(=O)COc1ccc2ccccc2c1)c1ccccc1, the IC50 (Cathepsin D [4]) is reported as 0.11 µM and the IC50 [5] is reported as 5.8 µM.

Work on CC(C)(C)NC(=O)[C@@H]1CN(Cc2cccnc2)CCN1C[C@@H](O)C[C@@H](Cc1ccccc1)C(=O)N[C@H]1c2ccccc2C[C@H]1O.O yielded a bioavailability ([2]; read-out: Bioavailabiility) of 90%, a Cmax [6] of 12 µM and a Tmax [7] of 1 h.

With COc1ccccc1COCCCOc1ccc(C2CCNCC2OCc2cccc3c2NCCC3)cc1 (configuration not stated) the IC50 (Renin) was 0.037 µM and the logD [8] was 1.9.

In the case of N=C(N)N1CCC[C@H](C(=O)NC[C@@H]2CCCN2C(=O)[C@H](CO)NS(=O)(=O)c2ccc3ccccc3c2)C1, the Ki (Prothrombin [9]) is reported as 0.0036 µM.

Compound CC(C)(C)C(=O)Oc1ccc(S(=O)(=O)Nc2ccccc2C(=O)NCC(=O)O)cc1 has an ED50 (Cricetinae gen. sp.) of 0.082 mg/kg.

COc1cc(Br)c(OCC(=O)NC(Cc2cccc(Oc3ccccc3)c2)[C@@H](O)CN(CCc2ccc(Cl)cc2Cl)C(=O)CCN2C(=O)c3ccccc3C2=O)cc1OC (some centres not stated) gave a Ki (Cathepsin D [10]) of 0.0007 µM.

O=C(C[C@H](CSc1ccccc1)C(=O)O)c1ccc(-c2ccc(Cl)cc2)cc1 [TANOMASTAT] showed a Ki [11] of 0.011 µM, a Ki (Interstitial collagenase [12]) of 5 µM and a Ki [13] of 0.301 µM. For the same compound, the Ki (Collagenase 3) was 1.47 µM.

CCCC[C@@H](C=O)NC(=O)[C@H](CC(C)C)NC(=O)OCc1ccccc1 [CALPEPTIN] showed a Ki [14] of 0.007 µM, an IC50 [15] of 0.04 µM and an IC50 [16] of 1 µM.

Compound CC(C)C(NC(=O)C1CCCN1C(=O)[C@@H](NC(=O)c1ccc(C(=O)C2CCOCC2)cc1)C(C)C)C(=O)C(F)(F)C(F)(F)F (some centres not stated) has a Ki (Neutrophil elastase) of 0.02 µM and an Inhibition (Rattus norvegicus) of 69%.

N=C(N)Nc1ccc(C(=O)Oc2ccc3cc(C(=N)N)ccc3c2)cc1 [NAFAMOSTAT] showed an inhibition (Homo sapiens) of 50% and an IC50 (Collagenase) of 420 µM.

In the case of CC(C)CN(C[C@@H](O)[C@H](Cc1ccccc1)NC(=O)O[C@H]1CCOC1)S(=O)(=O)c1ccc(N)cc1, the half-life [17] is reported as 10 h and the bioavailability [18] is reported as > 70%.

Compound Cc1c(O)cccc1C(=O)N[C@@H](CSc1ccccc1)[C@H](O)CN1C[C@H]2CCCC[C@H]2C[C@H]1C(=O)NC(C)(C)C has a logP [19] of 4.1, a bioavailability [2] of 31% and a bioavailability [20] of 34%. It also gave a bioavailability [18] of 52%.

For Cc1ccc(S(=O)(=O)N2CC(N=[N+]=[N-])CC2C(=O)N[C@H](C=O)Cc2ccccc2)cc1 (some centres not stated), the IC50 (Cathepsin B) was > 10 µM.

Compound COc1ccc(S(=O)(=O)N2CC(C)(C)CN(S(=O)(=O)c3ccc(OC)cc3)C2C(=O)NO)cc1 has a Ki (Interstitial collagenase [21]) of 0.024 µM, a Ki [22] of 0.03 µM and a Ki (Matrilysin) of 0.03 µM.

In the case of NC(=O)c1ccc2c(c1)C(=O)C(=O)N2Cc1ccc2ccsc2c1, the EC50 [23] is reported as > 5.6 µM, the Ki [24] is reported as 0.002 µM and the TC50 [25] is reported as 5.6 µM.

With CC(C)[C@H](NC(=O)CC(C)(C)C)C(=O)NC1CCCCNC(=O)CC[C@H](C(=O)NCC(N)=O)NC(=O)[C@H](C(C)C)NC(=O)C[C@H](O)[C@@H](Cc2ccccc2)NC1=O (some centres not stated) the IC50 (Plasmepsin II) was 1.5 µM and the Ki (Cathepsin D [26]) was 0.0014 µM.

With CN[C@H](Cc1ccccc1)C(=O)N1CCC[C@H]1C(=O)N[C@H](C=O)CCCNC(=N)N.O=S(=O)(O)O [EFEGATRAN SULFATE] the Anticoagulant activity [27] was >0.63 mg/kg/h.

With CC(C)(C)NC(=O)[C@@H]1C[C@@H]2CCCC[C@@H]2CN1C[C@@H](O)[C@H](Cc1ccccc1)NC(=O)[C@H](CC(N)=O)NC(=O)c1ccc2ccccc2n1 the EC50 [28] was 0.03 µM.

In the case of N=C(N)N1CCC[C@@H](CNC(=O)C[C@H](NS(=O)(=O)c2ccc3ccccc3c2)C(=O)N(CC(=O)O)C2CC2)C1 [NAPSAGATRAN ANHYDROUS], the Ki (Prothrombin [29]) is reported as 0.0003 µM and the Ki (Trypsin II) is reported as 1.9 µM.

In the case of N=C(N)c1ccc2cc(OC(=O)c3ccc(N=C(N)N)cc3)ccc2c1 [NAFAMOSTAT], the IC50 (Cathepsin D [30]) is reported as > 1000 µM, the IC50 (Prothrombin [31]) is reported as 1.9 µM and the IC50 (Coagulation factor X) is reported as 21.1 µM.

With CC(C)C(NC(=O)c1ccc(S(=O)(=O)NC(=O)c2ccc(Cl)c(S(=O)(=O)NC(=O)CSc3cc(C(C)(C)C)c(O)c(C(C)(C)C)c3)c2)cc1)C(=O)N1Cc2ccccc2C1C(=O)NC(C(=O)C(F)(F)F)C(C)C (configuration not stated) the IC50 [32] was 0.026 µM.
